Measurements published in patent US20260072027A1, “Peptides And Method” (Queen Mary University of London, priority 2022, published 2026).
Where no end group is shown, it is not given here.

How the values were obtained:
[1] = test system: autoantibodies to oxPTM-INS; experiment: Competitive displacement ELISA, plate coated with oxidised insulin; format: binding, human; conditions: for inhibition of type 1 diabetes serum binding to oxPTM-INS (in words): sera pre-incubated with peptide competitor
Protocol: A competitive displacement assay was performed to map the exact epitope, namely the exact amino acid sequence binding specificities and to test the binding to native peptides versus oxidised insulin peptides. The binding to the peptide was done by direct ELISA on the native or modified peptides or by competition ELISA. Initially native synthetic peptide was oxidised by exposing to 0.05 mM CuCl2; 90 mM H2O2; 10 mM NaOCl. Native and modified peptides were fractionated by AKTA to evaluated changes in molecular profile. AKTA fractions were then tested by ELISA for reactivity (FIGS. 2 and 3). We next perform competition ELISA with the native peptides and peptides exposed to 0.05 mM CuCl2; 90 mM H2O2; 10 mM NaOCl. Serum samples were pre-incubated with either native insulin peptides or oxidised insulin peptides. Finally, based on the amino acid sequence of the identified peptides we predicted the amino acids that would be oxidised by ^●OH and HOCl and designed synthetic peptides that contain the oxidised amino acids in the synthesis. Synthetic peptides were produced by standard commercially available methods, specifically by Peptide Protein Research Ltd. Briefly, peptide synthesis was performed by automated solid phase peptide synthesis (SPPS), which was followed by purification. Each individual amino acid was added to the growing chain according to the sequence. Where specified, dihydroxyphenylalanine was added to replace Tyr or cysteate were added to replace Cys. Similarly, these peptides were tested by competition ELISA. The table below describe the different competition ELISA performed:
Serum samples from children with type 1 diabetes were pre-incubated with the synthetic peptides before they were added to the native insulin or oxidised that were previously coated on the ELISA plate. If the antibodies in the serum sample bind to the peptide they will no longer bind to the insulin or oxidised insulin on the plate-competition ELISA. 1:200 dilutions of serum samples from T1D serum samples were pre-incubated for 2 hr at room temperature with the various peptides as shown in the table above. After incubation, serum/peptide mix was added to the ELISA plate previously coated overnight with either native insulin or oxidised insulin for an additional 2 hr incubation. Plates were then washed in a plate washer three times with PBS 0.05% tween. After washing, 100 ul of anti-human IgG diluted 1:1000 in 1% milk-PBS 0.05% tween were added for additional 1 hour and 30 min incubation. After washing, ELISA was developed by adding 100 ul of TMB (10 mg/ml in DMSO) in 10 ml of 0.1 M sodium acetate plus 2 ul of H2O2. Reaction was stopped by adding 0.5 M H2SO4 (usually 20 min for insulin ELISA).
To assess the binding specificity of serum samples to identified peptides, a competitive ELISA was performed. The ELISA was carried out following the method described above, except that the serum samples were pre-incubated for 2 h with and without 10 μg/ml peptides as competitors, before adding the serum samples to the insulin coated ELISA plate.

[2] = test system: serum IgG autoantibodies; experiment: ELISA for autoantibody detection: serum antibody binding to native and oxPTM insulin peptides; parameters: species or system human; conditions: for % binders, Healthy controls / Mean ± SEM (absorbance, OD), Healthy controls / % binders, Type 1 diabetes: Study cohort 1; for % binders, Type 1 diabetes: cut-off = mean of healthy controls to Nt-INSP plus 3 SEM; for Mean ± SEM (absorbance, OD), Type 1 diabetes: Study cohort 1 sera
Protocol: ELISA for autoantibody detection. The ELISA analysis of Nt-INS and oxPTM-INS autoantibodies was performed as previously described [18](detailed in ESM methods, ELISA assay for antibody detection).
Statistical analyses. Statistical analyses were performed using Prism Software 9.0 (GraphPad, San Diego, CA, USA). Cut-off points of positivity (binders) in the antibody ELISA for each peptide were defined by the mean of optical absorbance (O.D) of healthy controls to the corresponding Nt-INSP plus three times the standard error of the mean (SEM). Specificity and sensitivity were evaluated by receiver operating characteristic (ROC) curve analysis. Area under the curve (AUC) is reported as absolute value and was tested for equality according to DeLong et al. Differences in antibody levels and T-cell stimulation indices (SI) between groups were tested by the One way ANOVA or Student's t-tests as appropriate. Correlation analyses were tested by Pearson or Spearman's test, as appropriate. Categorical analyses were performed by Chi-square or McNemar's tests, as appropriate. For each set of experiments, p values were adjusted for multiple comparison using the Holm-Sidak's test. Hierarchical cluster and Principal Component Analysis (PCA) was done using Clustvis software (https://biit.cs.ut.ee/clustvis/) and Prism Software 9.0, respectively.
Antibody reactivity of type 1 diabetes serum against the candidate oxPTM-INSP. Identified peptide candidates were synthesised and exposed to either HOCl or ^●OH to generate oxPTM-INSPs that were first assessed by TOF-MS/ES+TIC to confirm modification (FIG. 17). Antibody response against native INSPs (Nt-INSPs) and oxPTM-INSPs was evaluated by ELISA using sera from Study cohort 1.
ESM Methods ELISA assay for antibody detection. The ELISA analysis of native (Nt-INS) and modified insulin (oxPTM-INS) was performed as previously described. Briefly, the ELISA plate was coated overnight at 4° C. with 100 μl per well of modified or native insulin in 0.05 M carbonate/bicarbonate buffer pH 9.6 at 10 μg/ml. The next day, the plates were washed 3 times with 0.1% Tween PBS, followed by blocking for 2 hours at room temperature with 200 μl per well of 5% BSA in 0.1% Tween PBS. After washing, 100 μl of 1:200-diluted serum samples in 5% BSA-0.1% Tween PBS were added for additional 2 hours incubation. ELISA plates were then washed 3 times with 0.1% Tween PBS followed by probing with anti-human IgG horse radish peroxidase conjugated (HRP, Sigma) at 1:1,000 dilution in 5% BSA-0.1% Tween PBS for another 1.5 hours incubation. The ELISA plates were washed, and 100 μg/ml TMB substrate in 0.1M sodium acetate pH 6.0 plus 2 μl/10 ml of H2O2, were added. Subsequently, the reaction was stopped with 20% v/v sulphuric acid. The optical density (O.D.) was measured at 450 nm using a GENios plate reader and Magellan software (TECAN, Dorset, UK).

[3] = test system: CD8+ T-cells (PBMCs); experiment: In vitro peptide stimulation and T-cell proliferation assay, CD8+; format: cell-based, human
Description: (§1) In vitro peptide stimulation and T-cell proliferation assay. Peripheral blood mononuclear cells (PBMCs) were freshly isolated from type 1 diabetes and healthy individuals using Ficoll-Hypaque density gradient centrifugation. PBMCs were labelled with the fluorescent dye CellTrace Violet (Invitrogen, Thermo Fisher Scientific) and cultured (2×10^5 cells/well) in round-bottom 96-well plates (Falcon, Becton Dickinson) with RPMI-1640 medium (Gibco, Thermo Fisher Scientific) supplemented with 5% autologous plasma in the presence or not of insulin peptides (20 μg/ml); PPD (10 μg/ml) and anti-CD3 (0.1 μg/ml; clone OKT3) were used as positive control. Two scrambled peptides: […] (SEQ ID NO: 17), […] (SEQ ID NO: 18), and the Exendin 9-39 fragment were used as negative controls. After 7 days, PBMCs were stained with PE-Cy7 anti-CD8 (clone RPA-T8, BD Pharmingen) and FITC anti-CD3 (clone UCHT1, BD Pharmingen). Samples were analysed by using a FACSCanto II (BD Bioscience) to evaluate T-cell proliferation measured as CellTrace Violet dilution. Cytofluorimetric analyses were performed using FlowJo Software (FlowJo, LLC). The results were given as stimulation index (SI), calculated as percentage of stimulated T-cell subset proliferation/percentage of unstimulated T-cell subset proliferation. Assay for detection of peptide specific T cells subsets was done as previously described (detailed in ESM methods, Assay for detection of peptide specific T cells)
(§2) T-cell stimulation with oxPTM-INSPs. To evaluate the immune cell response against the oxPTM-INSPs, we performed CD4+ and CD8+ T cells proliferation experiments using freshly isolated PBMCs (Study cohort 2, Table 1). Response was calculated as stimulatory index (SI) over unstimulated T-cells.

[4] = test system: CD4+ T-cells (PBMCs); experiment: In vitro peptide stimulation and T-cell proliferation assay, CD4+; format: cell-based, human
Description: as §1, §2

| Substance | inhibition of type 1 diabetes serum binding to oxPTM-INS (in words) [1] | % binders, Healthy controls ([2]; in house modifications) [%] | Mean ± SEM (absorbance, OD), Healthy controls ([2]; in house modifications) | % binders, Type 1 diabetes ([2]; in house modifications) [%] | % binders, Healthy controls ([2]; in silico modifications) [%] | Mean ± SEM (absorbance, OD), Healthy controls ([2]; in silico modifications) | % binders, Type 1 diabetes ([2]; in silico modifications) [%] | Mean ± SEM (absorbance, OD), Type 1 diabetes ([2]; in house modifications) | Mean ± SEM (absorbance, OD), Type 1 diabetes ([2]; in silico modifications) | CD4+ T-cell response, subjects with SI > 3 (%) ([4]; Type 1 diabetes (N = 18)) | other results |
| --- | --- | --- | --- | --- | --- | --- | --- | --- | --- | --- | --- |
| SLYQLENYCN (Ac-SLYQLENYCN) [insulin A:12-21 native peptide] | not | 19 | 0.333 ± 0.030 | 42 | 9 | 0.143 ± 0.007 | 49 | 0.405 ± 0.029 | 0.242 ± 0.019 | (27.8%) | CD8+ T-cell response, subjects with SI > 1 (%) ([3]; Controls (N = 11)): (36.4%); CD8+ T-cell response, subjects with SI > 3 (%) ([3]; Controls (N = 11)): (36.4%); CD8+ T-cell response, subjects with SI > 5 (%) ([3]; Controls (N = 11)): (36.4%); CD8+ T-cell response, subjects with SI > 10 (%) ([3]; Controls (N = 11)): (18.2%); CD8+ T-cell response, subjects with SI > 1 (%) ([3]; Type 1 diabetes (N = 18)): (50.0%); CD8+ T-cell response, subjects with SI > 3 (%) ([3]; Type 1 diabetes (N = 18)): (22.2%); CD8+ T-cell response, subjects with SI > 5 (%) ([3]; Type 1 diabetes (N = 18)): (11.1%); CD8+ T-cell response, subjects with SI > 10 (%) ([3]; Type 1 diabetes (N = 18)): (5.6%); CD4+ T-cell response, subjects with SI > 1 (%) ([4]; Controls (N = 11)): (54.5%); CD4+ T-cell response, subjects with SI > 3 (%) ([4]; Controls (N = 11)): (18.2%); CD4+ T-cell response, subjects with SI > 5 (%) ([4]; Controls (N = 11)): (9.1%); CD4+ T-cell response, subjects with SI > 10 (%) ([4]; Controls (N = 11)): (0.0%); CD4+ T-cell response, subjects with SI > 1 (%) ([4]; Type 1 diabetes (N = 18)): (72.2%); CD4+ T-cell response, subjects with SI > 5 (%) ([4]; Type 1 diabetes (N = 18)): (21.1%); CD4+ T-cell response, subjects with SI > 10 (%) ([4]; Type 1 diabetes (N = 18)): (16.7%) |
| ERGFFYTPKT (Ac-ERGFFYTPKT) [insulin B:21-30 native peptide] |  | 10 | 0.263 ± 0.023 | 66 | 16 | 0.263 ± 0.020 | 63 | 0.435 ± 0.014 | 0.423 ± 0.012 |  | reduced binding to oxidised whole insulin ([1]; type 1 diabetes sera pre-incubated with peptide): 35-70% |
| Nt-INSP-6: native insulin peptide 6; printed as ERGFFYTPKT (SEQ ID NO: 5) and, in Tables 5 and 6, ERGFFYTPKTR (SEQ ID NO: 8) | not |  |  |  |  |  |  |  |  | 27.8% | type 1 diabetes binders (IgG autoantibody reactivity) ([2]; Study cohort 2, N = 18): none |
